Key:
Na+ channels = test: Whole-cell patch-clamp, total Na+ currents in DRG neurons; assay type: cell-based, rat
Description: (§1) Recordings were obtained from acutely dissociated DRG neurons as described earlier (Bellampalli et al., 2019). Patch-clamp recordings were performed at room temperature (22-24° C.). Currents were recorded using an EPC 10 Amplifier-HEKA (HEKA Elektronik, Ludwigshafen, Germany) linked to a computer with Patchmaster software. DRG neurons were incubated overnight (˜16-24 hours) with 20 μM of CBD3063.
For Na^+ current (INa^+) recordings, the external solution contained (in mM): 130 NaCl, 3 KCl, 30 tetraethylammonium chloride, 1 CaCl2, 0.5 CdCl2, 1 MgCl2, 10 D-glucose, and 10 HEPES (pH 7.3 adjusted with NaOH, and mOsm/L=324). Patch pipettes were filled with an internal solution containing (in mM): 140 CsF, 1.1Cs-EGTA, 10 NaCl, and 15 HEPES (pH 7.3 adjusted with CsOH, and mOsm/L=311). Peak Na^+ current was acquired by applying 150-millisecond voltage steps from −70 to +60 mV in 5-mV increments from a holding potential of −60 mV to obtain the current-voltage (I-V) relation.
(§2) Normalization of currents to each cell's capacitance (pF) was performed to allow for collection of current density data. For I-V curves, functions were fitted to data using a non-linear least squares analysis. I-V curves were fitted using double Boltzmann functions:
(§3) Activation curves were obtained from the I-V curves by dividing the peak current at each depolarizing step by the driving force according to the equation: G=I/(Vmem-Erev), where I is the peak current, Vmem is the membrane potential and Erev is the reversal potential. The conductance (G) was normalized against the maximum conductance (Gmax). For total and the different subtypes of Ca^2+ currents, steady-state inactivation (SSI) curves were obtained by applying an H-infinity protocol that consisted of 1.5-seconds conditioning pre-pulses from −100 to +30 mV in 10-mV increments followed by a 20-millisecond test pulse to +10 mV. For Na^+ currents, SSI curves were obtained by applying an H-infinity protocol that consisted of 1-second conditioning pre-pulses from −120 to +10 mV in 10-mV increments followed by a 200-millisecond test pulse to +10 mV. Inactivation curves were obtained by dividing the peak current recorded at the test pulse by the maximum current (Imax). Activation and SSI curves were fitted with the Boltzmann equation.

[1] = target: T1, Cav2.2 (N-type) calcium channels (Rattus norvegicus, UniProt Q02294); test: Whole-cell patch-clamp, isolated N-type Ca2+ currents in DRG neurons; assay type: cell-based; settings: for normalized peak N-type ICa2+ density: normalized to DMSO (1.00±0.07)
T1 construct: Recordings were obtained from acutely dissociated DRG neurons; endogenous in cells; host or cells: primary rat DRG neurons
T1 sequence (Q02294 whole entry): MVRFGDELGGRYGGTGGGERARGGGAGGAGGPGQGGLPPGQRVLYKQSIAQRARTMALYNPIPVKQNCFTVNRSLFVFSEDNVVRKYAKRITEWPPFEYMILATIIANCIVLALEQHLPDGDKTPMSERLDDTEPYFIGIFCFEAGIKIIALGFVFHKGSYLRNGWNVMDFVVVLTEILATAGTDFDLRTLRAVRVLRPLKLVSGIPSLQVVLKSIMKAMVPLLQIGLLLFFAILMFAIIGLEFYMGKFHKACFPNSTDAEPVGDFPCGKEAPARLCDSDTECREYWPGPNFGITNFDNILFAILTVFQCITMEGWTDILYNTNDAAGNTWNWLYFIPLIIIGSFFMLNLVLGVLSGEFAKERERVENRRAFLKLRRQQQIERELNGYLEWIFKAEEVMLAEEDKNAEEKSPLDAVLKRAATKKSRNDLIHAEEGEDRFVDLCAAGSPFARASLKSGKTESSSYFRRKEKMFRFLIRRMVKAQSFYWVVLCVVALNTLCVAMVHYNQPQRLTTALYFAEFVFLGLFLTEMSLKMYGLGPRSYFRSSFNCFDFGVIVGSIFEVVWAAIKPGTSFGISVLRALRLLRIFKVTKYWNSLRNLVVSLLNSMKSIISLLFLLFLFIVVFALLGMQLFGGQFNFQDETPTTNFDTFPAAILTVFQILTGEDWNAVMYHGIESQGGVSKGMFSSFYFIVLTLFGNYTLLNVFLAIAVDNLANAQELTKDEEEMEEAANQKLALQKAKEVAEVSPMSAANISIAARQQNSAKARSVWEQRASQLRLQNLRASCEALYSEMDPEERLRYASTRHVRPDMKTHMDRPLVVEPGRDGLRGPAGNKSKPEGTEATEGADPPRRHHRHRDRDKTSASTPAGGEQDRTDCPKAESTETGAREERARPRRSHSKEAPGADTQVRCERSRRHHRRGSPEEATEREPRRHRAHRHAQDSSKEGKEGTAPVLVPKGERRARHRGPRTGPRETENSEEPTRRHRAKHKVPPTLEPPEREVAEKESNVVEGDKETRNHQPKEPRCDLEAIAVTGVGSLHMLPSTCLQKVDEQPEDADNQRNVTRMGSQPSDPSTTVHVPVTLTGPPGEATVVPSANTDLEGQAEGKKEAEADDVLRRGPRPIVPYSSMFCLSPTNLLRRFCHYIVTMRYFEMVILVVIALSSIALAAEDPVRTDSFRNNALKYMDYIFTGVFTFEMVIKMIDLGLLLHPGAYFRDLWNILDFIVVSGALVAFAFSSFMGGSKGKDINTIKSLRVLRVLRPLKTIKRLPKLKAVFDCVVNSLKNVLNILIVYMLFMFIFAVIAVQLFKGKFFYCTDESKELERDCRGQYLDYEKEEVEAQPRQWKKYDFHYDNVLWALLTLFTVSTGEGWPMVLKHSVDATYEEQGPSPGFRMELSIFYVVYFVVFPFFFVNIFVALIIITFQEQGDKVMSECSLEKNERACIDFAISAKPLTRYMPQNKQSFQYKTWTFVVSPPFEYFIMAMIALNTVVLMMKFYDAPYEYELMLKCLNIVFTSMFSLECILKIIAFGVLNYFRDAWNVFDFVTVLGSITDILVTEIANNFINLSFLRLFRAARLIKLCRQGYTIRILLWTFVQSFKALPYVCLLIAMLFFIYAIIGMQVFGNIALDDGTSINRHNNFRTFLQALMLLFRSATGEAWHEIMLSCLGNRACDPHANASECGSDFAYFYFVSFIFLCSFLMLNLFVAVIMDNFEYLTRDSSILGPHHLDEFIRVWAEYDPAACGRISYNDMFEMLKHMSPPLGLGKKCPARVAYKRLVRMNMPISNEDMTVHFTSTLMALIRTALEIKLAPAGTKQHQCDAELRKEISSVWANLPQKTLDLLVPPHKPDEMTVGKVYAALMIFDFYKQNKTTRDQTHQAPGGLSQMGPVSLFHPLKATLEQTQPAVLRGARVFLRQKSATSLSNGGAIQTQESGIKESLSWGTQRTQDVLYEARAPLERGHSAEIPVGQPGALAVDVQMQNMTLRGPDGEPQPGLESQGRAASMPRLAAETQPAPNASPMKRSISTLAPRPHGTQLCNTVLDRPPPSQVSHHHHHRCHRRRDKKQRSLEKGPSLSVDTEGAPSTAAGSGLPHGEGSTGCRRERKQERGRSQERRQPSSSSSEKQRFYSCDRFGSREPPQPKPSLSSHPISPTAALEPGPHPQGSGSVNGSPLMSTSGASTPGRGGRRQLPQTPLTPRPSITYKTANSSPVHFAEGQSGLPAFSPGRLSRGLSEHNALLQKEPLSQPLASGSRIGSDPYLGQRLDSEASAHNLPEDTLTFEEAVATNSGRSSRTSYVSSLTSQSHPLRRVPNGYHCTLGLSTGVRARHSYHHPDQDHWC
T1 sequence (P54290 25-1091 partner): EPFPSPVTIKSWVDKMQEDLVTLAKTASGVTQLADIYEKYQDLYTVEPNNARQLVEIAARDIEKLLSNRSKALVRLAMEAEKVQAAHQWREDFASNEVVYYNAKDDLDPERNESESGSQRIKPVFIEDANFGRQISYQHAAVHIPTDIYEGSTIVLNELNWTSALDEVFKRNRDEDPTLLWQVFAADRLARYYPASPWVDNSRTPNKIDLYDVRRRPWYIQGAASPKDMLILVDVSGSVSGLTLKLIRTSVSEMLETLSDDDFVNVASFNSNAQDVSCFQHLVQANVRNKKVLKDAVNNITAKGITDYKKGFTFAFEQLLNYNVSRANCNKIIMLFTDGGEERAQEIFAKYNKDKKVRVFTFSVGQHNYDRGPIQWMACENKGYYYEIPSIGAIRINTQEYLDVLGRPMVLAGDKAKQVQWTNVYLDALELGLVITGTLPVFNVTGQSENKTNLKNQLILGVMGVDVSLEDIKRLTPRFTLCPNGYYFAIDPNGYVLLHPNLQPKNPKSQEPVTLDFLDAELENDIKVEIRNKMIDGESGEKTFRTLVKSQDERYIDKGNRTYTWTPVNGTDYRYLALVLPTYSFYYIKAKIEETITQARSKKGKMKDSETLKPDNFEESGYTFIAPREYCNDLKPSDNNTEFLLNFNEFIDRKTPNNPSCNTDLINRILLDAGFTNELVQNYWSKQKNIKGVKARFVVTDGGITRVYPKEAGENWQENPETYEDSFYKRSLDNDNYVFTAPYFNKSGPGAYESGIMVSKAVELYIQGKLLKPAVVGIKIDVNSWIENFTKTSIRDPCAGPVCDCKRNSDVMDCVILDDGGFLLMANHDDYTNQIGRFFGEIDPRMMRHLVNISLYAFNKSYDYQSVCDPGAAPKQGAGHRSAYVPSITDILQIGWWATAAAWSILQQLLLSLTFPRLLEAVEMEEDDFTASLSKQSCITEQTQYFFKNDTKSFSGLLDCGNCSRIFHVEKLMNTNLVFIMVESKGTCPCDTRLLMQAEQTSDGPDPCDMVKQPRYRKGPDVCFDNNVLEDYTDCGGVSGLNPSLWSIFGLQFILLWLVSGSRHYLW
T1 sequence (P54287 whole entry partner): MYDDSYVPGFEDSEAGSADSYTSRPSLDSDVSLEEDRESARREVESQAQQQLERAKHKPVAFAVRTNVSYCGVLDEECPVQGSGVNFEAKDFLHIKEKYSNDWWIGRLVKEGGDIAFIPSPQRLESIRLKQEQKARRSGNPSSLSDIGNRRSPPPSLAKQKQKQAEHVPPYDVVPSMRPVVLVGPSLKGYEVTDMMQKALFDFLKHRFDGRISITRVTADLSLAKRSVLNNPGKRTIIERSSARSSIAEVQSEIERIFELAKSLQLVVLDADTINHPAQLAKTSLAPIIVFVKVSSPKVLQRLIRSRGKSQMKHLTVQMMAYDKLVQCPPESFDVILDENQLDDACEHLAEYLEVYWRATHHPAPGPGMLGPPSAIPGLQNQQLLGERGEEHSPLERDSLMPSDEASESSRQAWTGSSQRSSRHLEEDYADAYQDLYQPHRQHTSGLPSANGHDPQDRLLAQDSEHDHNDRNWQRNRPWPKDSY
Description: as §1, with “DRG neurons were incubated overnight (˜16-24 hours) with 20 μM of CBD3063.” left out
(§4) For total calcium current (ICa^2+) recordings, the external solution consisted of the following (in mM): 110 N-methyl-D-glucamine, 10 BaCl2, 30 TEA-Cl, 10 HEPES, 10 glucose, and 0.001 TTX (pH 7.29 adjusted with TEA-OH, and mOsm/L=310). Patch pipettes were filled with an internal solution containing (in mM): 150 CsCl2, 10 HEPES, 5 Mg-ATP, and 5 BAPTA, (pH 7.2 adjusted with CsOH, and mOsm/L-305). Peak Ca^2+ current was acquired by applying 200-millisecond voltage steps from −70 to +60 mV in 10-mV increments from a holding potential of −90 mV to obtain the current-voltage (I-V) relation. To measure the different subtypes of Ca^2+ channels, DRGs were treated with a Cav inhibitor cocktail omitting the inhibitor specific to the subtype being tested (e.g., to measure Cav2.2 currents, ω-conotoxin GVIA is omitted): Nifedipine (10 μM, L-type), ω-Conotoxin-GVIA (500 nM, […]) (Feng, et al., 2001), SNX482 (200 nM, R-type) (Newcomb et al., 1998), ω-agatoxin (200 nM, P/Q-type) (Mintz et al., 1992), TTA-P2 (1 μM, T-type) (Choe et al., 2011).
as §2
(§5) where x is the pre-pulse potential, V1/2 is the mid-point potential, and k is the corresponding slope factor for single Boltzmann functions. Double Boltzmann fits were used to describe the shape of the curve, not to imply the existence of separate channel populations. Numbers 1 and 2 simply indicate first and second mid-points; a along with g are fitting parameters.
as §3

[2] = target: T2, Cav2.3 (R-type) calcium channels (Rattus norvegicus, UniProt Q07652); test: Whole-cell patch-clamp, isolated R-type Ca2+ currents in DRG neurons; assay type: cell-based
T2 construct: Recordings were obtained from acutely dissociated DRG neurons; endogenous in cells; host or cells: acutely dissociated rat DRG neurons
Description: as §1, §4, §2, §5, §3

[3] = tested on: Cav1 (L-type) calcium channels; test: Whole-cell patch-clamp, isolated L-type Ca2+ currents in DRG neurons; assay type: cell-based, rat
Description: as §1, §4, §2, §5, §3

[4] = tested on: voltage-gated potassium channels; test: Whole-cell patch-clamp, total potassium currents in DRG neurons; assay type: cell-based, rat; settings: 20 μM (DMSO: 420.9±54.19)
Description: as §1
To isolate potassium currents (IK+), DRG neurons were bathed in external solution composed of (in millimolar): 140 N-methyl-glucamine chloride, 5 KCl, 1 MgCl2, 2 CaCl2, 10 D-glucose, and 10 HEPES (pH adjusted to 7.3 with KOH and mOsm/L=313). Recording pipettes were filled with internal solution containing (in mM): 140 KCl, 2.5 MgCl2, 4 Mg-ATP, 0.3 Na-GTP, 2.5 CaCl2), 5 EGTA, and 10 HEPES (pH adjusted to 7.3 with KOH and mOsm/L=320). From a holding potential of −60 mV, IK activation was determined by applying 300-millisecond voltage steps from −80 to +60 mV in 10-mV increments.
Normalization of currents to each cell's capacitance (pF) was performed to allow for collection of current density data. For I-V curves, functions were fitted to data using a non-linear least squares analysis. I-V curves were fitted using double Boltzmann functions: […]

[5] = 20 μM overnight, mean ± SEM (n cells)

CC(=O)N[C@@H]1CCCN(C(=O)NCCCNc2ccccn2)C1 [CBD3063, (3R)-3-acetamido-N-[3-(pyridin-2-ylamino)propyl]piperidine-1-carboxamide]
peak Na+ current density (Na+ channels; 20 μM overnight (DMSO: −455.7±78.70)): −455.0±60.79 pA/pF
Na+ currents, activation V1/2 (Na+ channels; [5]): −21.738 ± 0.852 (12) mV
Na+ currents, activation k (slope factor) (Na+ channels; [5]): 4.749 ± 0.744 (12)
Na+ currents, inactivation V1/2 (Na+ channels; [5]): −32.552 ± 2.084 (12) mV
Na+ currents, inactivation k (slope factor) (Na+ channels; [5]): −12.003 ± 1.936 (12)
normalized peak N-type ICa2+ density ([1]; 2 μM overnight): 0.93±1.07
peak N-type calcium current density ([1]; 20 μM overnight, +10 mV (DMSO: −104.00±11.32)): −69.18±6.54 pA/pF
decrease of N-type currents at peak current density ([1]; 20 μM overnight, +10 mV, vs control group): ~33.5%
N-type Ca2+ currents, activation V1/2 [1, 5]: −5.275 ± 0.669 (17) mV
N-type Ca2+ currents, activation k (slope factor) [1, 5]: 5.616 ± 0.566 (17)
N-type Ca2+ currents, inactivation V1/2 [1, 5]: −31.129 ± 2.169 (17) mV
N-type Ca2+ currents, inactivation k (slope factor) [1, 5]: −17.247 ± 2.104 (17)
normalized peak N-type ICa2+ density ([1]; 20 μM overnight): 0.74±0.04
normalized peak N-type ICa2+ density ([1]; 50 μM overnight): 0.65±0.06
effect on Ca2+ influx through Cav2.3 (R-type) channels (current density-voltage curve, peak current density) ([2]; 20 μM overnight vs 0.1% DMSO): does not alter
R-type Ca2+ currents, activation V1/2 [2, 5]: −4.098 ± 0.693 (11) mV
R-type Ca2+ currents, activation k (slope factor) [2, 5]: 7.244 ± 0.579 (11)
R-type Ca2+ currents, inactivation V1/2 [2, 5]: −16.840 ± 2.186 (11) mV
R-type Ca2+ currents, inactivation k (slope factor) [2, 5]: −11.870 ± 1.850 (11)
effect on Ca2+ influx through Cav1 (L-type) channels (current density-voltage curve, peak current density) ([3]; 20 μM overnight vs 0.1% DMSO): does not alter
L-type Ca2+ currents, activation V1/2 [3, 5]: −2.704 ± 0.710 (7) mV
L-type Ca2+ currents, activation k (slope factor) [3, 5]: 5.528 ± 0.615 (7)
L-type Ca2+ currents, inactivation V1/2 [3, 5]: −10.128 ± 2.133 (7) mV
L-type Ca2+ currents, inactivation k (slope factor) [3, 5]: −4.961 ± 1.976 (7)
peak potassium current density [4]: 422.1±52.70 pA/pF
